Patent US11753397B2, “Cereblon binders for the degradation of ikaros” (C4 Therapeutics, Inc., priority 2018, dated 2023)

Tested on: NCIH929.1 cells
Assay: Cell viability assay (CellTiter-Glo 2.0, ATP quantification)
Type: cell-based
Details: NCIH929.1 cell viability, CellTiter-Glo 2.0, 96 hr incubation, top concentration 1 μM
Outline: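 Read-out is CellTiter-Glo 2.0 luminescence (ATP), after 96 h compound exposure at 37 °C, with a day-0 plate giving the CT0 baseline. Duplicate 10-point half-log titration from 1 μM applied to 750 cells/well in RPMI, 10% FBS, 0.05 mM 2-mercaptoethanol.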

Row | SMILES | GI50 [nM]
1 | CC(C)(C)OC(=O)N1CCC(C(=O)N2CCC(n3cc(CNc4cccc5c4C(=O)N(C4CCC(=O)NC4=O)C5=O)cn3)CC2)CC1 (centres unmarked) [Compound 121, tert-butyl 4-(4-(4-(((2-(2,6-dioxopiperidin-3-yl)-1,3-dioxoisoindolin-4-yl)amino)methyl)-1H-pyrazol-1-yl)piperidine-1-carbonyl)piperidine-1-carboxylate] | < 100
2 | Cc1cncc(N2CCC(C(=O)N3CCC(n4cc(CNc5cccc6c5C(=O)N(C5CCC(=O)NC5=O)C6=O)cn4)CC3)CC2)n1 (centres unmarked) [Compound 122, 2-(2,6-dioxopiperidin-3-yl)-4-(((1-(1-(1-(6-methylpyrazin-2-yl)piperidine-4-carbonyl)piperidin-4-yl)-1H-pyrazol-4-yl)methyl)amino)isoindoline-1,3-dione] | < 1
3 | O=C1CCC(N2C(=O)c3cccc(NCc4cnn(C5CCN(C(=O)CC6CCN(C(=O)c7ccccc7)CC6)CC5)c4)c3C2=O)C(=O)N1 (centres unmarked) [Compound 123, 4-(((1-(1-(2-(1-benzoylpiperidin-4-yl)acetyl)piperidin-4-yl)-1H-pyrazol-4-yl)methyl)amino)-2-(2,6-dioxopiperidin-3-yl)isoindoline-1,3-dione] | < 100
4 | O=C1CCC(N2C(=O)c3cccc(NCc4cnn(C5CCN(C(=O)Cc6ccc7c(c6Cl)OCCCO7)CC5)c4)c3C2=O)C(=O)N1 (centres unmarked) [Compound 124, 4-(((1-(1-(2-(6-chloro-3,4-dihydro-2H-benzo[b][1,4]dioxepin-7-yl)acetyl)piperidin-4-yl)-1H-pyrazol-4-yl)methyl)amino)-2-(2,6-dioxopiperidin-3-yl)isoindoline-1,3-dione] | < 100
5 | Cn1nc(C2CC2)cc1CC(=O)N1CCC(n2cc(CNc3cccc4c3C(=O)N(C3CCC(=O)NC3=O)C4=O)cn2)CC1 (centres unmarked) [Compound 125, 4-(((1-(1-(2-(3-cyclopropyl-1-methyl-1H-pyrazol-5-yl)acetyl)piperidin-4-yl)-1H-pyrazol-4-yl)methyl)amino)-2-(2,6-dioxopiperidin-3-yl)isoindoline-1,3-dione] | < 100
6 | O=C1CCC(N2C(=O)c3cccc(NCc4cnn(C5CCN(C(=O)CC6CCN(C(=O)C7CCC7)CC6)CC5)c4)c3C2=O)C(=O)N1 (centres unmarked) [Compound 126, 4-(((1-(1-(2-(1-(cyclobutanecarbonyl)piperidin-4-yl)acetyl)piperidin-4-yl)-1H-pyrazol-4-yl)methyl)amino)-2-(2,6-dioxopiperidin-3-yl)isoindoline-1,3-dione] | < 100
7 | O=C1CCC(N2C(=O)c3cccc(NCc4cnn(C5CCN(CC6CCCCC6)CC5)c4)c3C2=O)C(=O)N1 (centres unmarked) [Compound 127, 4-(((1-(1-(cyclohexylmethyl)piperidin-4-yl)-1H-pyrazol-4-yl)methyl)amino)-2-(2,6-dioxopiperidin-3-yl)isoindoline-1,3-dione] | < 100
8 | O=C1CCC(N2C(=O)c3cccc(NCc4cnn(C5CCN(CC6CCCC6)CC5)c4)c3C2=O)C(=O)N1 (centres unmarked) [Compound 128, 4-(((1-(1-(cyclopentylmethyl)piperidin-4-yl)-1H-pyrazol-4 yl)methyl)amino)-2-(2,6-dioxopiperidin-3-yl)isoindoline-1,3-dione] | < 100
9 | O=C1CCC(N2C(=O)c3cccc(NCc4cnn(C5CCN(C6CCC6)CC5)c4)c3C2=O)C(=O)N1 (centres unmarked) [Compound 129, 4-(((1-(1-cyclobutylpiperidin-4-yl)-1H-pyrazol-4-yl)methyl)amino)-2-(2,6-dioxopiperidine-3-yl)isoindoline-1,3-dione] | < 100
10 | O=C1CCC(N2C(=O)c3cccc(NCc4cnn(C5CCN(C6CCCC6)CC5)c4)c3C2=O)C(=O)N1 (centres unmarked) [Compound 130, 4-(((1-(1-cyclopentylpiperidin-4-yl)-1H-pyrazol-4-yl)methyl)amino)-2-(2,6-dioxopiperidin-3-yl)isoindoline-1,3-dione] | < 100
11 | O=C1CCC(N2C(=O)c3cccc(NCc4cnn(C5CCN(CC6CCC6)CC5)c4)c3C2=O)C(=O)N1 (centres unmarked) [Compound 131, 4-(((1-(1-(cyclobutylmethyl)piperidin-4-yl)-1H-pyrazol-4-yl)methyl)amino)-2-(2,6-dioxopiperidin-3-yl)isoindoline-1,3-dione] | < 100
12 | CC1(CN2CCC(n3cc(CNc4cccc5c4C(=O)N(C4CCC(=O)NC4=O)C5=O)cn3)CC2)CCCCC1 (centres unmarked) [Compound 132, 2-(2,6-dioxopiperidin-3-yl)-4-(((1-(1-((1-methylcyclohexyl)methyl)piperidin-4-yl)-1H-pyrazol-4-yl)methyl)amino)isoindoline-1,3-dione] | < 100
13 | O=C1CCC(N2C(=O)c3cccc(NCc4cnn(C5CCN(C6CCCCC6)CC5)c4)c3C2=O)C(=O)N1 (centres unmarked) [Compound 133, 4-(((1-(1-cyclohexylpiperidin-4-yl)-1H-pyrazol-4-yl)methyl)amino)-2-(2,6-dioxopiperidin-3-yl)isoindoline-1,3-dione] | < 100
14 | O=C1CCC(N2C(=O)c3cccc(NCc4cnn(C5CCN(C6CC6)CC5)c4)c3C2=O)C(=O)N1 (centres unmarked) [Compound 134, 4-(((1-(1-cyclopropylpiperidin-4-yl)-1H-pyrazol-4-yl)methyl)amino)-2-(2,6-dioxopiperidin-3-yl)isoindoline-1,3-dione] | < 100
15 | O=C1CCC(N2C(=O)c3cccc(NCc4cnn(C5CCN(C6CC7(CCC7)C6)CC5)c4)c3C2=O)C(=O)N1 (centres unmarked) [Compound 135, 2-(2,6-dioxopiperidin-3-yl)-4-(((1-(1-(spiro[3.3]heptan-2-yl)piperidin-4-yl)-1H-pyrazol-4-yl)methyl)amino)isoindoline-1,3-dione] | < 100
16 | CC1(CN2CCC(n3cc(CNc4cccc5c4C(=O)N(C4CCC(=O)NC4=O)C5=O)cn3)CC2)CC1 (centres unmarked) [Compound 136, 2-(2,6-dioxopiperidin-3-yl)-4-(((1-(1-((1-methylcyclopropyl)methyl)piperidin-4-yl)-1H-pyrazol-4-yl)methyl)amino)isoindoline-1,3-dione] | < 1
17 | O=C1CCC(N2C(=O)c3cccc(NCc4cnn(C5CCN(CC6(C(F)(F)F)CC6)CC5)c4)c3C2=O)C(=O)N1 (centres unmarked) [Compound 137, 2-(2,6-dioxopiperidin-3-yl)-4-(((1-(1-((1-(trifluoromethyl)cyclopropyl)methyl)piperidin-4-yl)-1H-pyrazol-4-yl)methyl)amino)isoindoline-1,3-dione] | < 100
18 | CC1(CN2CCC(n3cc(CNc4cccc5c4C(=O)N(C4CCC(=O)NC4=O)C5=O)cn3)CC2)CCCC1 (centres unmarked) [Compound 138, 2-(2,6-dioxopiperidin-3-yl)-4-(((1-(1-((1-methylcyclopentyl)methyl)piperidin-4-yl)-1H-pyrazol-4-yl)methyl)amino)isoindoline-1,3-dione] | < 1
19 | CC1(CN2CCC(n3cc(CNc4cccc5c4C(=O)N(C4CCC(=O)NC4=O)C5=O)cn3)CC2)CCC1 (centres unmarked) [Compound 139, 2-(2,6-Dioxo-piperidin-3-yl)-4-({1-[1-(1-methyl-cyclobutylmethyl)-piperidin-4-yl]-1H-pyrazol-4-ylmethyl}-amino)-isoindole-1,3-dione] | < 100
20 | O=C1CCC(N2C(=O)c3cccc(NCc4cnn(C5CCN(CC6(C(F)(F)F)CCC6)CC5)c4)c3C2=O)C(=O)N1 (centres unmarked) [Compound 140, 2-(2,6-dioxopiperidin-3-yl)-4-(((1-(1-((1-(trifluoromethyl)cyclobutyl)methyl)piperidin-4-yl)-1H-pyrazol-4-yl)methyl)amino)isoindoline-1,3-dione] | < 100
21 | Cn1cc(CNc2cccc3c2C(=O)N(C2CCC(=O)NC2=O)C3=O)cn1 (centres unmarked) [Compound 141, 2-(2,6-dioxopiperidin-3-yl)-4-(((1-methyl-1H-pyrazol-4-yl)methyl)amino)isoindoline-1,3-dione] | < 100
22 | CCn1cc(CNc2cccc3c2C(=O)N(C2CCC(=O)NC2=O)C3=O)cn1 (centres unmarked) [Compound 142, 2-(2,6-dioxopiperidin-3-yl)-4-(((1-ethyl-1H-pyrazol-4-yl)methyl)amino)isoindoline-1,3-dione] | < 100
23 | CC(C)Cn1cc(CNc2cccc3c2C(=O)N(C2CCC(=O)NC2=O)C3=O)cn1 (centres unmarked) [Compound 143, 2-(2,6-dioxopiperidin-3-yl)-4-(((1-isobutyl-1H-pyrazol-4-yl)methyl)amino)isoindoline-1,3-dione] | > 100
24 | CC(C)(C)n1cc(CNc2cccc3c2C(=O)N(C2CCC(=O)NC2=O)C3=O)cn1 (centres unmarked) [Compound 144, 4-(((1-(tert-butyl)-1H-pyrazol-4-yl)methyl)amino)-2-(2,6-dioxopiperidin-3-yl)isoindoline-1,3-dione] | < 100
25 | O=C1CCC(N2C(=O)c3cccc(NCc4cnn(-c5ccccc5)c4)c3C2=O)C(=O)N1 (centres unmarked) [Compound 145, 2-(2,6-dioxopiperidin-3-yl)-4-(((1-phenyl-1H-pyrazol-4-yl)methyl)amino)isoindoline-1,3-dione] | < 100
26 | O=C1CCC(N2C(=O)c3cccc(NCc4cnn(C5CCN(C(=O)OCc6ccccc6)CC5)c4)c3C2=O)C(=O)N1 (centres unmarked) [Compound 146, benzyl 4-(4-(((2-(2,6-dioxopiperidin-3-yl)-1,3-dioxoisoindolin-4-yl)amino)methyl)-1H-pyrazol-1-yl)piperidine-1-carboxylate] | < 100
27 | CCOC(=O)N1CCC(n2cc(CNc3cccc4c3C(=O)N(C3CCC(=O)NC3=O)C4=O)cn2)CC1 (centres unmarked) [Compound 147, ethyl 4-(4-(((2-(2,6-dioxopiperidin-3-yl)-1,3-dioxoisoindolin-4-yl)amino)methyl)-1H-pyrazol-1-yl)piperidine-1-carboxylate] | < 100
28 | O=C1CCC(N2C(=O)c3cccc(NCc4cnn(C5CCN(C(=O)OCC(Cl)(Cl)Cl)CC5)c4)c3C2=O)C(=O)N1 (centres unmarked) [Compound 148, 2,2,2-trichloroethyl 4-(4-(((2-(2,6-dioxopiperidin-3-yl)-1,3-dioxoisoindolin-4-yl)amino)methyl)-1H-pyrazol-1-yl)piperidine-1-carboxylate] | < 100
29 | CC(C)(C)COC(=O)N1CCC(n2cc(CNc3cccc4c3C(=O)N(C3CCC(=O)NC3=O)C4=O)cn2)CC1 (centres unmarked) [Compound 149, neopentyl 4-(4-(((2-(2,6-dioxopiperidin-3-yl)-1,3-dioxoisoindolin-4-yl)amino)methyl)-1H-pyrazol-1-yl)piperidine-1-carboxylate] | < 1
